Data as given in patent US10682339B2, “Pharmaceutical compositions directly targeting FKBP52 for the treatment of prostate cancer and methods of using same” (THE BOARD OF REGENTS OF THE UNIVERSITY OF TEXAS SYSTEM, priority 2014, dated 2020).

Legend:
[1] = tested on: 22Rv1 prostate cancer cells; experiment: BrdU incorporation assay of hormone-dependent 22Rv1 cell proliferation; type: cell-based; conditions: 22Rv1 cells
Description: (§1) FIG. 4. GMC1 inhibits hormone-dependent and +independent PSA secretion and hormone dependent proliferation in 22Rv1 prostate cancer cells. (A) ELISA assay in 22Rv1 cells measuring GMC1 effects on PSA secretion in the presence and absence of hormone. (B) qPCR assay in 22Rv1 cells measuring endogenous PSA gene expression in the presence or absence of hormone. For comparison, GMC1, but not MJC13, inhibits hormone-independent PSA secretion and/or expression. (C) A BrdU incorporation assay was used to assess GMC1 effects on hormone-dependent 22Rv1 cell proliferation.

[2] = tested on: LNCaP prostate cancer cells; experiment: ELISA of androgen-dependent PSA secretion from LNCaP cells; type: cell-based; conditions: preliminary
Procedure: (§2) FIG. 3. The FKBP52-specific inhibitor GMC1 inhibits AR and GR activity. (A) Representative AR- and GR-mediated luciferase reporter assays in MDA-kb2 cells with a range of GMC1 concentrations. The average IC50 from 4 independent experiments are shown. (B) A representative luciferase reporter assay in 52KO mouse embryonic fibroblast cells in the presence or absence of FKBP52 were performed. Transfected cells were treated with DHT and a range of concentrations of GMC1 and assessed for AR-dependent expression of a luciferase reporter. The average IC50 of 3 independent assays is shown. (C-D) ELISA assays measuring androgen-dependent PSA secretion form LNCaP (C) and 22Rv1 (D) prostate cancer cells treated with the indicated concentrations of GMC1.

[3] = tested on: 22Rv1 prostate cancer cells; experiment: qPCR of endogenous PSA gene expression in 22Rv1 cells; type: cell-based; conditions: absence of hormone
Description: as §1

GR = experiment: GR-mediated luciferase reporter assay in MDA-kb2 cells; type: cell-based
Procedure: as §2

[4] = tested on: 22Rv1 prostate cancer cells; experiment: ELISA of PSA secretion from 22Rv1 cells in the presence and absence of hormone; type: cell-based; conditions: for inhibition of hormone-independent PSA secretion (ELISA): absence of hormone
Procedure: as §2, §1

[5] = tested on: FKBP52-regulated AR activity; experiment: AR-dependent luciferase reporter assay in 52KO mouse embryonic fibroblast cells with or without FKBP52; type: cell-based; conditions: 52KO MEF cells, DHT treated
Procedure: as §2

AR = experiment: AR-mediated luciferase reporter assay in MDA-kb2 cells; type: cell-based; conditions: among 40 hits from the virtual screen
Procedure: as §2

[6] = tested on: prostate cancer xenograft; conditions: prostate cancer xenograft model; preliminary preclinical studies; cited from earlier work
[7] = target: T1, β-catenin interaction with AR (Homo sapiens, UniProt P10275); experiment: β-catenin interaction with AR; conditions: targeting to the AR BF3 surface
T1 sequence (P10275 1-920): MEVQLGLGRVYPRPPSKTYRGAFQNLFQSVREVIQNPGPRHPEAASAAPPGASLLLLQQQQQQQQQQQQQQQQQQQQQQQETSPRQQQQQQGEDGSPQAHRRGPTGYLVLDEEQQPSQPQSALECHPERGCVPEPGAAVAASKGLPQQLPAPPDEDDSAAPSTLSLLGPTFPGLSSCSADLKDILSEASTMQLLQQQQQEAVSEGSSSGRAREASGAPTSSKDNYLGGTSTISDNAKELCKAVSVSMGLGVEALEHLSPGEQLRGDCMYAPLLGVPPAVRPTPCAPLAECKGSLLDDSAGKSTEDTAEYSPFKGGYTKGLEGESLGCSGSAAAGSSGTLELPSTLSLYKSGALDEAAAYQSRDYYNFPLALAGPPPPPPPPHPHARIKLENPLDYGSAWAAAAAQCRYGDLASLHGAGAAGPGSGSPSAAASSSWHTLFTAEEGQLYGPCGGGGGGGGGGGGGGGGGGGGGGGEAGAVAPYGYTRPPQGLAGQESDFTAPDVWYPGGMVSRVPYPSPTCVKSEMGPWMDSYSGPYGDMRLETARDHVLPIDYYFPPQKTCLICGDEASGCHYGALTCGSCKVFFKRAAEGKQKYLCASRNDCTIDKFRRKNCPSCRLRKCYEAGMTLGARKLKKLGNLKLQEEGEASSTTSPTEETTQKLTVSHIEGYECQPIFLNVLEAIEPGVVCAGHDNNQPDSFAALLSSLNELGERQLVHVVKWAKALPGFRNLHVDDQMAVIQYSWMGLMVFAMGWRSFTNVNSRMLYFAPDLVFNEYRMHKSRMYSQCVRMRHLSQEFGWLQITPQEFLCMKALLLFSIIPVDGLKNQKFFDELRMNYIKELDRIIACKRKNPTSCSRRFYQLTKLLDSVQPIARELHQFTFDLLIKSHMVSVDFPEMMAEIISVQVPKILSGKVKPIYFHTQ
Description: MJC13 is described as an inhibitor of FKBP52-regulated AR activity (De Leon et. al. 2011. PNAS. 108 (29): 11878-83) by targeting the AR BF3 surface. A novel mechanism is disclosed by which FKBP52 and β-catenin interact to co-regulate AR activity in prostate cancer cells. […] Specific small molecules docked within the PPIase pocket affect proline-rich loop conformation and interactions. […] Thus, small molecules predicted to target the FKBP52 PPIase pocket have been identified in the disclosed embodiments.

[8] = tested on: human prostate cancer cell lines; conditions: cited from earlier work
[9] = variety of human prostate cancer cell lines

Row | effect on β-catenin interaction with AR [7] | SMILES | inhibition of hormone dependent proliferation (BrdU incorporation) [1] | inhibition of AR-dependent PSA expression (ELISA) [2] | inhibition of hormone-independent PSA gene expression (qPCR) [3] | inhibition of FKBP52-regulated GR activity (effective concentration range) (GR) | inhibition of hormone-independent PSA secretion (ELISA) [4] | inhibition of AR-dependent (hormone-dependent) PSA expression/secretion (ELISA) ([4]; with hormone) | inhibition of FKBP52-regulated AR activity (effective concentration range) [5] | inhibition of AR-mediated reporter gene expression (AR) | effects on tumor growth [6] | effective drug concentrations (AR BF3 surface targeting) [8] | block of AR signaling [8, 9] | block of AR-dependent cancer cell proliferation [8, 9]
1 | – | COc1ccc(/C=N/NC(=O)CSc2nc3ccccc3[nH]2)cc1 [GMC1, 2-(1H-benzimidizol-2-ylsulfanyl)-N—[(Z)-(4methoxyphenyl)methylideneamino]acetamide] | inhibits | inhibits | inhibits | high nanomolar range | inhibits | inhibits | high nanomolar range | most potent inhibition | – | – | – | –
2 | abrogates | O=C(Nc1cccc(Cl)c1Cl)C1CCCCC1 [MJC13] | – | – | not | – | not | – | – | – | impressive effects on tumor growth | low micromolar range | effectively block | effectively block
